Assay: xn = mol fraction of the nth substance listed

CCCCC(C)O (configuration not stated) + CC(C)OC(C)C
viscosity [mPa·s], 100 kPa
Details	x2 = 0.0806	x2 = 0.1592	x2 = 0.2412	x2 = 0.3508	x2 = 0.4391	x2 = 0.5594	x2 = 0.6497	x2 = 0.7378	x2 = 0.8483	x2 = 0.9386
293.15 K	4.51	3.97	3.48	2.91	2.49	1.97	1.6	1.26	0.84	0.531
298.15 K	3.61	3.16	2.76	2.3	1.97	1.56	1.275	1.02	0.706	0.465
303.15 K	2.89	2.53	2.2	1.83	1.567	1.25	1.034	0.84	0.6	0.42
308.15 K	2.38	2.08	1.825	1.53	1.32	1.06	0.88	0.715	0.52	0.38
313.15 K	2	1.75	1.54	1.29	1.115	0.906	0.756	0.62	0.46	0.35
318.15 K	1.69	1.49	1.31	1.11	0.962	0.783	0.66	0.55	0.416	0.32
323.15 K	1.44	1.27	1.12	0.95	0.83	0.68	0.58	0.49	0.38	0.295

FC(F)(F)c1ccccc1 + CC(Cl)(Cl)Cl
298.15 K, 101.33 kPa
Details	viscosity [mPa·s]
x2 = 0.103	0.5617
x2 = 0.201	0.572
x2 = 0.301	0.5865
x2 = 0.402	0.6017
x2 = 0.502	0.6199
x2 = 0.602	0.6413
x2 = 0.701	0.6677
x2 = 0.8	0.7
x2 = 0.85	0.7179

CN(C)c1ccccc1 + CCC(=O)O
viscosity [mPa·s], 101 kPa
Details	x2 = 0.1014	x2 = 0.2025	x2 = 0.305	x2 = 0.3966	x2 = 0.5057	x2 = 0.6027	x2 = 0.6922	x2 = 0.8012	x2 = 0.8905	x2 = 0.8987
298.15 K	1.364	1.416	1.478	1.527	1.583	1.651	1.69	1.657	1.467	–
303.15 K	–	–	–	–	–	–	–	–	–	1.225

C=CC#N + CCC(=O)c1ccccc1
308.15 K, 101 kPa
Details	viscosity [mPa·s]
x2 = 0.1051	0.405
x2 = 0.1752	0.4545
x2 = 0.2496	0.513
x2 = 0.3126	0.5731
x2 = 0.4246	0.6893
x2 = 0.5385	0.8078
x2 = 0.6672	0.9571
x2 = 0.8184	1.161

CC(=O)CC(C)=O + CCC(C)(C)O
298.15 K, 101 kPa
Details	viscosity [mPa·s]
x1 = 0.1	2.481
x1 = 0.2	1.809
x1 = 0.3	1.39
x1 = 0.4	1.138
x1 = 0.5	0.987
x1 = 0.6	0.893
x1 = 0.7	0.827
x1 = 0.8	0.776
x1 = 0.9	0.733

CCC(C)(C)O + CCC(C)=O
Details	viscosity [mPa·s]
293.15 K, 101 kPa, x2 = 0.2341	2.105

CN(C)c1ccccc1 + CCC(C)=O
viscosity [mPa·s], 101 kPa
Details	303.15 K	308.15 K
x1 = 0.0689	0.487	0.438
x1 = 0.1256	0.574	0.516
x1 = 0.1905	0.671	0.605
x1 = 0.2652	0.776	0.701
x1 = 0.3256	0.853	0.773
x1 = 0.3905	0.926	0.84
x1 = 0.4621	0.993	0.905
x1 = 0.5362	1.048	0.958
x1 = 0.6058	1.086	0.997
x1 = 0.6753	1.113	1.025
x1 = 0.7416	1.129	1.045
x1 = 0.8056	1.14	1.06
x1 = 0.8826	1.149	1.076

C=CC#N + CCC(C)O
viscosity [mPa·s], 101.33 kPa
Details	x1 = 0.1033	x1 = 0.2014	x1 = 0.301	x1 = 0.4055	x1 = 0.5087	x1 = 0.6049	x1 = 0.7009	x1 = 0.803	x1 = 0.8992
298.15 K	1.828	1.319	0.99	0.775	0.63	0.536	0.456	0.418	0.378
303.15 K	1.567	1.165	0.887	0.704	0.582	0.499	0.438	0.391	0.358
308.15 K	1.361	1.024	0.799	0.644	0.539	0.465	0.413	0.373	0.342

CC(C)(C)Br + CCC(C)O
viscosity [mPa·s], 101.3 kPa
Details	x1 = 0.1001	x1 = 0.2023	x1 = 0.3034	x1 = 0.4041	x1 = 0.5076	x1 = 0.605	x1 = 0.7049	x1 = 0.8014	x1 = 0.8997
298.15 K	2.174	1.629	1.302	1.105	0.9569	0.876	0.8006	0.768	0.7327
313.15 K	1.386	1.108	0.9333	0.8074	0.7201	0.6655	0.6235	0.6023	0.5859

CCCCN(CCCC)CCCC + CCC(C)O
303.15 K, 101 kPa
Details	viscosity [mPa·s]
x1 = 0.01127	2.456
x1 = 0.0218	2.439
x1 = 0.03265	2.423
x1 = 0.04214	2.409
x1 = 0.04957	2.399
x1 = 0.05793	2.387
x1 = 0.06851	2.372
x1 = 0.07785	2.359
x1 = 0.08821	2.345

CN(C)c1ccccc1 + CCC(C)O
303.15 K, 101 kPa
Details	viscosity [mPa·s]
x1 = 0.0452	2.686
x1 = 0.0845	2.638
x1 = 0.1321	2.582
x1 = 0.1893	2.512
x1 = 0.2452	2.442
x1 = 0.2756	2.402
x1 = 0.3065	2.362
x1 = 0.3655	2.279
x1 = 0.4292	2.183
x1 = 0.4906	2.086
x1 = 0.6021	1.893
x1 = 0.7323	1.65
x1 = 0.8911	1.353

CC(=O)CC(C)=O + CCCC(C)O
298.15 K, 101 kPa
Details	viscosity [mPa·s]
x1 = 0.1	2.324
x1 = 0.2	1.65
x1 = 0.3	1.276
x1 = 0.4	1.082
x1 = 0.5	0.983
x1 = 0.6	0.918
x1 = 0.7	0.855
x1 = 0.8	0.787
x1 = 0.9	0.725

CCCCN(CCCC)CCCC + CCCCCC
viscosity [mPa·s], 101 kPa
Details	x1 = 0.0982	x1 = 0.1945	x1 = 0.3994	x1 = 0.495	x1 = 0.5384	x1 = 0.7924	x1 = 0.903
303.15 K	0.3305	0.3909	0.5434	0.623	0.6623	0.923	1.05
313.15 K	0.289	0.3449	0.4813	0.5536	0.588	0.8088	0.91

Cc1ccc(C(C)C)cc1 + CCCCCC
298.15 K, 101.33 kPa
Details	viscosity [mPa·s]
x2 = 0.0316	0.768
x2 = 0.0656	0.745
x2 = 0.0967	0.723
x2 = 0.1908	0.662
x2 = 0.2812	0.599
x2 = 0.3795	0.538
x2 = 0.5183	0.474
x2 = 0.6271	0.424
x2 = 0.7093	0.393
x2 = 0.8209	0.349
x2 = 0.9331	0.314

CCCCN(CCCC)CCCC + CCCCCCCC
viscosity [mPa·s], 101 kPa
Details	x1 = 0.0983	x1 = 0.1934	x1 = 0.395	x1 = 0.4909	x1 = 0.5915	x1 = 0.7854	x1 = 0.897
303.15 K	0.532	0.5833	0.7038	0.7674	0.838	0.9861	1.079
313.15 K	0.4675	0.5129	0.6183	0.6727	0.734	0.8553	0.9291

CCCCC(C)O (configuration not stated) + CCCCCCCCCCCC
298.15 K, 101 kPa
Details	viscosity [mPa·s]
x2 = 0.0555	3.6
x2 = 0.0999	3.24
x2 = 0.1555	2.84
x2 = 0.1999	2.55
x2 = 0.2554	2.24
x2 = 0.2999	2.01
x2 = 0.3555	1.77
x2 = 0.3998	1.6
x2 = 0.4555	1.42
x2 = 0.4999	1.31
x2 = 0.5554	1.19
x2 = 0.5998	1.12
x2 = 0.6554	1.05
x2 = 0.6999	1.02
x2 = 0.7555	1
x2 = 0.7997	1
x2 = 0.8555	1.02
x2 = 0.8998	1.04
x2 = 0.9555	1.09

CCCCCCc1ccccc1 + CCCCCCCCCCCCCCCC
viscosity [mPa·s], 102 kPa
Details	x1 = 0.1344	x1 = 0.259	x1 = 0.3742	x1 = 0.4819	x1 = 0.5823	x1 = 0.6747	x1 = 0.765	x1 = 0.848	x1 = 0.9262
293.15 K	3.12	2.85	2.63	2.43	2.25	2.11	1.98	1.86	1.77
303.15 K	2.49	2.3	2.13	1.98	1.85	1.74	1.64	1.55	1.47
313.15 K	2.04	1.9	1.76	1.65	1.55	1.46	1.38	1.31	1.25
323.15 K	1.7	1.59	1.49	1.4	1.32	1.25	1.18	1.13	1.08

CCCCN(CCCC)CCCC + CCCCCCCCCCO
viscosity [mPa·s], 101.3 kPa
Details	x1 = 0.0952	x1 = 0.1901	x1 = 0.2866	x1 = 0.3816	x1 = 0.5195	x1 = 0.6185	x1 = 0.7198	x1 = 0.8029	x1 = 0.9006
303.15 K	7.192	5.845	4.754	3.874	2.91	2.358	1.928	1.658	1.378
313.15 K	5.659	4.596	3.721	3.026	2.288	1.892	1.586	1.388	1.175

CCCCOC(=O)c1ccccc1C(=O)OCCCC + CCCCCCCCCCO
303.15 K, 101.33 kPa
Details	viscosity [mPa·s]
x1 = 0.1004	8.572
x1 = 0.1995	8.061
x1 = 0.3035	7.851
x1 = 0.4004	7.91
x1 = 0.4902	8.075
x1 = 0.5977	8.479
x1 = 0.6985	9.095
x1 = 0.7997	9.985
x1 = 0.8948	11.18

O=C1c2ccccc2C(=O)C1(O)O + CCCCCCCCCO
101.3 kPa, x1 = 0.25
Details	viscosity [mPa·s]
293.15 K	38.14
298.15 K	27.87
303.15 K	21.73
308.15 K	17.37
313.15 K	13.74
318.15 K	11.01
323.15 K	9.139

— the CheMixHub viscosity set
